From patent publication EP0403048A2, “Medicated compositions containing sucralfate and processes for their production” (WARNER-LAMBERT COMPANY, priority 1989, dated 1990)
Where two headings read alike, the source gives them in different places.

Tests used:
[1] = in vitro comparative gelling experiment in 0.1N hydrochloric acid; format: physicochemical
[2] = system: Escherichia coli, A.T.T.C. accession number 8739; experiment: in-vitro antimicrobial activity, zone of inhibition on agar plates; format: cell-based; details: agar plate well, incubated at 37° C. for 24 hours

O=C(O)c1ccccc1 [Example 10, Benzoic Acid]
gel formation [1]: did not gel

Cl [Example 12, 0.1N Hydrochloric Acid]
gel formation [1]: gelled

Sucralfate [Example 1]
supernatant left after gelling ([1]; 15ml of 0.1N hydrochloric acid): essentially clear
gelled in (time to gel) ([1]; composition in 15ml of 0.1N hydrochloric acid, Vortex-Genie speed 3 for 10-15 seconds): about 10 seconds

Sucralfate [Example 7]
gel formation ([1]; sample preparation for the antimicrobial test: 15ml of 0.1N hydrochloric acid in sterile test tube): gelled
ZONE OF INHIBITION(CM) [2]: Negative
